Test results published in patent US7767659B2, “Synthesis of naturally occurring ecteinascidins and related compounds” (Pharma Mar, S.A., priority 2002, dated 2010).

Legend:
DU-145 = test: Inhibition of cells growth by colorimetric assay (SRB); details: Homo sapiens, DU-145, 48 h; for GI50: read-out: DU145 GI50; for CC50: read-out: DU145 LC50; for IC (TGI): read-out: DU145 TGI
Outline: (§1)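 Colorimetric SRB read (490 nm) on triplicate wells after 48 h at 37 °C, 5% CO2. Dose range 10 to 10^−8 μg/ml; 5×10^3 cells/well pre-attached 18 h.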

A-498 = test: as above
Outline: as §1

SK-MEL-28 = test: as above; details: Homo sapiens, SK-MEL-28, 48 h; for GI50: read-out: MEL-28 GI50; for CC50: read-out: MEL-28 LC50; for IC (TGI): read-out: MEL-28 TGI
Outline: as §1

OVCAR-3 = test: as above
Outline: as §1

SW620 = test: as above
Outline: as §1

MCF-7 = test: as above
Outline: as §1

MDA-MB-231 = test: as above
Outline: as §1

HT-29 = test: cells; details: Homo sapiens, HT-29, 48 h; for GI50: read-out: HT29 GI50; for CC50: read-out: HT29 LC50; for IC (TGI): read-out: HT29 TGI
Outline: as §1

A-549 = test: cells; details: Homo sapiens, A549, 48 h; for GI50: read-out: A549 GI50; for CC50: read-out: A549 LC50; for IC (TGI): read-out: A549 TGI
Outline: as §1

SK-OV-3 = test: Inhibition of cells growth by colorimetric assay (SRB)
Outline: as §1

IGROV-1 = test: as above; details: Homo sapiens, IGROV-1, 48 h
Outline: as §1

LNCaP = test: as above; details: Homo sapiens, LNCaP, 48 h
Outline: as §1

K-562 = test: as above; details: Homo sapiens, K562, 48 h
Outline: as §1

[1] = as above; details: human
Outline: as §1

LoVo-Dox = test: as above; details: Homo sapiens, 48 h
Outline: as §1

PANC-1 = test: as above; details: Homo sapiens, PANC-1, 48 h
Outline: as §1

SK-BR-3 = test: as above; details: Homo sapiens, SK-BR-3, 48 h
Outline: as §1

IGROV-ET = test: as above; details: Homo sapiens, 48 h
Outline: as §1

HMEC1 = test: as above
Outline: as §1

LoVo = test: cells; details: Homo sapiens, LoVo, 48 h
Outline: as §1

P-388 cells = test: Inhibition of cell growth by counting cells; format: cell-based; details: Mus musculus, 72 h; p388 cells, three days of incubation
From the text: (§2) The finality of these assays is to interrupt the growth of a “in vitro” tumor cell culture by means a continued exhibition of the cells to the sample to be testing.
(§3) This form of the assay employs 24 well multidishes of 16 mm diameter (Bergeron, 1984; Schroeder, 1981). The tumor cell lines employed are: P-388 (ATCC CCL 46), suspension culture of a lymphoid neoplasm from a DBA/2 mouse; A-549 (ATCC CCL 185), monolayer culture of a human lung carcinoma; HT-29 (ATCC HTB-38), monolayer culture of a human colon carcinoma; MEL-28 (ATCC HTB-72), monolayer culture of a human melanoma and DU-145 (ATCC HTB-81), monolayer culture of a human prostate carcinoma.
(§4) Cells were maintained, in logarithmic phase of growth in Eagle's Minimum Essential Medium, with Earle's Balanced Salts, with non-essential amino acids, with 2.0 mM L-Glutamine, without sodium bicarbonate (EMEM/neaa), supplemented with 10% Fetal Calf Serum (FCS), 10^−2 M. sodium bicarbonate and 0.1 U/1 penicillin G+0.1 g/l streptomycin sulfate.
P-388 cells were seeded into 16 mm diameter wells at 1×10^4 cells per well in 1 ml aliquots of EMEM 5% FCS containing different concentrations of the sample to be tested. […]
For quantifying the activity, after the incubation time, cells are trypsinized and counted in a Coulter Counter ZM. […]

MEL-28 cells = test: Inhibition of cell growth by counting cells; format: cell-based; details: Homo sapiens, SK-MEL-28, 72 h; mel28 cells, three days of incubation
From the text: as §2, §3, §4
(§5) A-549, HT-29, MEL-28 and DU-145 cells were seeded into 16 mm diameter wells at 1×10^4 cells per well in 1 ml aliquots of EMEM 5% FCS containing different concentrations of the sample to be tested. A separate set of cultures without drug was seeded as control of growth, to ensure that cells remained in exponential phase of growth. All determinations are caring out in duplicate. After three days of incubation at 37° C., 5% CO2 in a 98% humid atmosphere cells were stained with 0.1% crystal violet. An approximately IC50 was determined by comparing the growth in wells with drug to the growth in wells control.
(§6) For quantifying the activity, after the incubation time, cells are trypsinized and counted in a Coulter Counter ZM. All counts (net cells per well), represent the average of duplicate wells. % G, percent of growth relative to cultures without drug.
(§7) For this technique, compounds which show IC50 values smaller than 1 μg/ml are selected to continue with further studies.

HT-29 cells = test: Inhibition of cell growth by counting cells; format: cell-based; details: Homo sapiens, HT-29, 72 h; ht29 cells, three days of incubation
From the text: as §2, §3, §4, §5, §6, §7

A-549 cells = test: Inhibition of cell growth by counting cells; format: cell-based; details: Homo sapiens, 72 h; a549 cells, three days of incubation
From the text: as §2, §3, §4, §5, §6, §7

DU-145 cells = test: Inhibition of cell growth by counting cells; format: cell-based; details: Homo sapiens, DU-145, 72 h; du145 cells, three days of incubation
From the text: as §2, §3, §4, §5, §6, §7

COc1c(C)cc2c(c1O)C1C3[C@@H]4SCC(=O)C(=O)OC[C@@H](c5c6c(c(C)c(OC(C)=O)c54)OCO6)N3[C@@H](O)[C@H](C2)N1C (stereo partly drawn) [Et-594]
GI50 (DU-145): 32.7 nM
CC50 (DU-145): 163 nM
IC (TGI) (DU-145): 81.7 nM
A498 TGI (A-498; A498, SRB, 48 hours exposure): 3.27E−07 Molar
GI50 (A-498; Homo sapiens, A498, 48 h, read-out: A498 GI50): 81.7 nM
CC50 (A-498; Homo sapiens, A498, 48 h, read-out: A498 LC50): 11400 nM
GI50 (SK-MEL-28): 32.7 nM
CC50 (SK-MEL-28): 131 nM
IC (TGI) (SK-MEL-28): 65.4 nM
GI50 (OVCAR-3; Homo sapiens, OVCAR-3, 48 h, read-out: OVCAR GI50): 32.7 nM
CC50 (OVCAR-3; Homo sapiens, OVCAR-3, 48 h, read-out: OVCAR LC50): 16300 nM
OVCAR TGI (OVCAR-3; OVCAR, SRB, 48 hours exposure): 1.14E−07 Molar
GI50 (SW620; Homo sapiens, SW-620, 48 h, read-out: SW-620 GI50): 32.7 nM
CC50 (SW620; Homo sapiens, SW-620, 48 h, read-out: SW-620 LC50): 3270 nM
SW-620 TGI (SW620; SW-620, SRB, 48 hours exposure): 9.80E−08 Molar
GI50 (MCF-7; Homo sapiens, MCF7, 48 h, read-out: MCF GI50): 32.7 nM
CC50 (MCF-7; Homo sapiens, MCF7, 48 h, read-out: MCF LC50): 3270 nM
MCF TGI (MCF-7; MCF, SRB, 48 hours exposure): 9.80E−08 Molar
GI50 (MDA-MB-231; Homo sapiens, MDA-MB-231, 48 h, read-out: MB231 GI50): 32.7 nM
CC50 (MDA-MB-231; Homo sapiens, MDA-MB-231, 48 h, read-out: MB231 LC50): 1630 nM
MB231 TGI (MDA-MB-231; MB231, SRB, 48 hours exposure): 1.14E−07 Molar
GI50 (HT-29): 49 nM
CC50 (HT-29): 1630 nM
IC (TGI) (HT-29): 98 nM
GI50 (A-549): 49 nM
CC50 (A-549): 654 nM
IC (TGI) (A-549): 131 nM

COc1cc2c(cc1O)CCN[C@]21CS[C@@H]2c3c(OC(C)=O)c(C)c4c(c3[C@H](COC1=O)N1C[C@@H]3Cc5cc(C)c(OC)c(O)c5C(C21)N3C)OCO4 (stereo partly drawn) [Et-745]
GI50 (SK-OV-3; Homo sapiens, SK-OV-3, 48 h, read-out: SK-OV3 GI50): 1320 nM
CC50 (SK-OV-3; Homo sapiens, SK-OV-3, 48 h, read-out: SK-OV3 LC50): 13400 nM
SK-OV3 TGI (SK-OV-3; SK-OV3, SRB, 48 hours exposure): 5.48E−06 Molar
GI50 (IGROV-1; read-out: IGROV GI50): 774 nM
CC50 (IGROV-1; read-out: IGROV LC50): 13400 nM
IC (TGI) (IGROV-1; read-out: IGROV TGI): 3260 nM
GI50 (DU-145): 488 nM
CC50 (DU-145): 13400 nM
IC (TGI) (DU-145): 2670 nM
GI50 (LNCaP; read-out: LNCAP GI50): 652 nM
CC50 (LNCaP; read-out: LNCAP LC50): 9810 nM
IC (TGI) (LNCaP; read-out: LNCAP TGI): 2390 nM
GI50 (K-562; read-out: K562 GI50): 884 nM
CC50 (K-562; read-out: K562 LC50): 13400 nM
IC (TGI) (K-562; read-out: K562 TGI): 3900 nM
CC50 at 48 h [1]: 13400 nM
GI50 (LoVo-Dox; read-out: LOVO-DOX GI50): 6250 nM
CC50 (LoVo-Dox; read-out: LOVO-DOX LC50): 13400 nM
IC (TGI) (LoVo-Dox; read-out: LOVO-DOX TGI): 13400 nM
GI50 (SK-MEL-28): 602 nM
CC50 (SK-MEL-28): 8620 nM
IC (TGI) (SK-MEL-28): 2210 nM
GI50 (PANC-1; read-out: PANC-1 GI50): 1320 nM
CC50 (PANC-1; read-out: PANC-1 LC50): 13400 nM
IC (TGI) (PANC-1; read-out: PANC-1 TGI): 9220 nM
GI50 (SK-BR-3; read-out: SK-BR3 GI50): 629 nM
CC50 (SK-BR-3; read-out: SK-BR3 LC50): 13400 nM
IC (TGI) (SK-BR-3; read-out: SK-BR3 TGI): 3150 nM
GI50 (IGROV-ET; read-out: IGROV-ET GI50): 3700 nM
CC50 (IGROV-ET; read-out: IGROV-ET LC50): 13400 nM
IC (TGI) (IGROV-ET; read-out: IGROV-ET TGI): 8450 nM
H-MEC-1 TGI (HMEC1; H-MEC-1, SRB, 48 hours exposure): 3.67E−06 Molar
GI50 (HMEC1; Homo sapiens, HMEC-1, 48 h, read-out: H-MEC-1 GI50): 634 nM
GI50 (LoVo; read-out: LOVO GI50): 5550 nM
CC50 (LoVo; read-out: LOVO LC50): 13400 nM
IC (TGI) (LoVo; read-out: LOVO TGI): 13400 nM
GI50 (HT-29): 522 nM
CC50 (HT-29): 13400 nM
IC (TGI) (HT-29): 2650 nM
GI50 (A-549): 743 nM
CC50 (A-549): 13400 nM
IC (TGI) (A-549): 4770 nM

COc1c(C)cc2c(c1O)[C@@H]1C3[C@@H]4SCC(=O)C(=O)OC[C@@H](c5c6c(c(C)c(OC(C)=O)c54)OCO6)N3[C@@H](C#N)[C@H](C2)N1C (stereo partly drawn) [compound 16]
IC50 (P-388 cells): 16.3 nM
IC50 (MEL-28 cells): 16.3 nM
IC50 (HT-29 cells): 16.3 nM
IC50 (A-549 cells): 16.3 nM

COc1c(C)cc2c(c1O)[C@@H]1C3[C@@H]4SCC(NC(C)=O)C(=O)OC[C@@H](c5c6c(c(C)c(OC(C)=O)c54)OCO6)N3[C@@H](C#N)[C@H](C2)N1C (stereo partly drawn) [compound 19]
IC50 (P-388 cells): 0.753 nM
IC50 (MEL-28 cells): 0.753 nM
IC50 (HT-29 cells): 0.753 nM
IC50 (DU-145 cells): 0.753 nM
IC50 (A-549 cells): 0.753 nM
